Results reported in ChEMBL document CHEMBL1201862, “PubChem BioAssay data set” (2004).
The source made the active and inactive calls.

What was measured:
[1] = molecular target: T1, Heat shock factor protein 1 (Mus musculus, UniProt P38532); experiment: decrease of HSF1-responsive luciferase luminescence – cell-based, NIH3T3, dose retest, confirmation (AID 2382); assay type: functional;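 note: NIH3T3 fibroblasts with HSF1-driven luciferase reporter stressed by proteasome inhibitor MG132; luminescence from HSF1-driven luciferase expression after 8 hours of MG132 stress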
T1 sequence (P38532 whole entry): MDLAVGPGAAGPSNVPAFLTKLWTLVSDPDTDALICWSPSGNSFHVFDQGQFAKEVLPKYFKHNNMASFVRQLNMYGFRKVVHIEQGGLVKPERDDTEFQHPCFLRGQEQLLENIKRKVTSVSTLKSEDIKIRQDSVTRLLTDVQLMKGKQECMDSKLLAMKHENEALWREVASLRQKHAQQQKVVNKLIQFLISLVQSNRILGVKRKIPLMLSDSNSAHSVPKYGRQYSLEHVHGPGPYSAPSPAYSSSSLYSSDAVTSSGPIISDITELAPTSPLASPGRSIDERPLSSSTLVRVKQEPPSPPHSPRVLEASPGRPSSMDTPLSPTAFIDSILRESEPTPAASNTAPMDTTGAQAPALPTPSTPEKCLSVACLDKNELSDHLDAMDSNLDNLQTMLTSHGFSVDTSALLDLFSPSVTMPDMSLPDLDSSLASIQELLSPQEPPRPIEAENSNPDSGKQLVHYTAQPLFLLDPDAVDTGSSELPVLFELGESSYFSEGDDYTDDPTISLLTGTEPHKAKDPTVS

[2] = molecular target: DNA dC->dU-editing enzyme APOBEC-3A (Homo sapiens, UniProt P31941); experiment: Dose Response confirmation of small molecule APOBEC3A DNA Deaminase Inhibitors via a fluorescence-based single-stranded DNA deaminase assay. [Related pubchem assays (depositor defined):AID493011, AID493024]; assay type: functional
[3] = molecular target: DNA dC->dU-editing enzyme APOBEC-3G (Homo sapiens, UniProt Q9HC16); assay type: functional;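 note: Dose-response counterscreen measuring inhibition of APOBEC3G DNA deaminase activity, run while confirming APOBEC3A inhibitors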
[4] = molecular target: T2, Carboxy-terminal domain RNA polymerase II polypeptide A small phosphatase 1 (Homo sapiens, UniProt Q9GZU7); experiment: CTDSP1 inhibitors, concentration-response, biochemical, absorbance readout, ultra-high-throughput screen actives (AID 540297); assay type: functional
T2 sequence (Q9GZU7 whole entry): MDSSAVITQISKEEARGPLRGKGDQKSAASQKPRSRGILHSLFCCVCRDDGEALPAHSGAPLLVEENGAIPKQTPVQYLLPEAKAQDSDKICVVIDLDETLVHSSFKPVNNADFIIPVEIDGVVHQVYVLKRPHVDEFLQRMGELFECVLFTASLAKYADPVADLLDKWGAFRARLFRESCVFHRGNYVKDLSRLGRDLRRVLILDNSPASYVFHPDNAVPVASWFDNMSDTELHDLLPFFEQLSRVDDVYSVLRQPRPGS

[5] = molecular target: T3, Sphingosine 1-phosphate receptor 4 (Homo sapiens, UniProt O95977); experiment: Late-stage fluorescence dose response cell-based assay to identify agonists of the Sphingosine 1-Phosphate Receptor 4 (S1P4): purchased compounds EC50. [Related pubchem assays (depositor defined):AID1509, AID1523, AID1563, AID1686, AID1701, AID1801]; assay type: functional
T3 sequence (O95977 whole entry): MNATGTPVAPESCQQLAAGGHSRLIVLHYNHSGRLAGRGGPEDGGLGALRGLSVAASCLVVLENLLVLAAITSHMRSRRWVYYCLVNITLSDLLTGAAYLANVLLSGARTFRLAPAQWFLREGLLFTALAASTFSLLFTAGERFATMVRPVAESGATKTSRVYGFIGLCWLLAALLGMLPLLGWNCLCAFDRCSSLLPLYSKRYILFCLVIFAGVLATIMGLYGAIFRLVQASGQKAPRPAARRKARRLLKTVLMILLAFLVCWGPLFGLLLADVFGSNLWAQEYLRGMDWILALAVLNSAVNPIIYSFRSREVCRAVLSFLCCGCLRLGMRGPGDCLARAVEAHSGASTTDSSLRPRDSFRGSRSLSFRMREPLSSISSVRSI

HEK293 [6] = experiment: inhibition of NOD1-driven NF-kB reporter – cell-based, luminescence, uHTS, primary screen (AID 1578); assay type: functional; conditions: Homo sapiens
HEK293 [7] = experiment: cells; assay type: functional, cell-based; conditions: Homo sapiens
HEK293 [8] = experiment: cells; assay type: functional, cell-based; conditions: Homo sapiens; remark: listed apart in the source
[9] = molecular target: T4, Nucleotide-binding oligomerization domain-containing protein 2 (Homo sapiens, UniProt Q9HC29); experiment: inhibition of NOD2-driven NF-kB reporter – cell-based, luminescence, uHTS, HEK293 (AID 1566); assay type: functional
HEK293 [10] = experiment: NOD2 signaling inhibitors in MDP-stimulated cells, cell-based, uHTS, luminescence (AID 2001); assay type: functional; conditions: Homo sapiens
HEK293 [11] = experiment: cells; assay type: functional, cell-based; conditions: Homo sapiens; remark: listed apart in the source
[12] = molecular target: T5, Calpain-2 catalytic subunit (Sus scrofa, UniProt P43367); experiment: m-calpain protease blockers, concentration series – biochemical, fluorogenic peptide substrate, dose response (AID 1420); assay type: functional
T5 sequence (P43367 whole entry): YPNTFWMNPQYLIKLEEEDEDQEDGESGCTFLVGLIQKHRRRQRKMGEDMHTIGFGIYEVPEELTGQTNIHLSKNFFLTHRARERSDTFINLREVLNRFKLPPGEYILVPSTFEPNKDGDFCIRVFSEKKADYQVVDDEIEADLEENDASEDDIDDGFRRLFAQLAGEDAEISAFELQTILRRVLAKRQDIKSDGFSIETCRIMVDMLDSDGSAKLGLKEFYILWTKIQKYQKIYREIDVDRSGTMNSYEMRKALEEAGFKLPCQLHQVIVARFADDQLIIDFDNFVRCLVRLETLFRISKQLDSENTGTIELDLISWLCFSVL

Tumor necrosis factor = Tumor necrosis factor (Homo sapiens, UniProt P01375); experiment: analog potency on TNFa NF-kB signaling – cell-based, revised, SAR follow-up (AID 2337); assay type: functional
[13] = molecular target: Nucleotide-binding oligomerization domain-containing protein 1 (Homo sapiens, UniProt Q9Y239); experiment: blockers of NOD1 pathway activity – revised, SAR follow-up (AID 2333); assay type: functional
[14] = molecular target: T4, Nucleotide-binding oligomerization domain-containing protein 2; experiment: PubChem AID 2334; assay type: functional
HEK293 [15] = experiment: cells; conditions: Homo sapiens
[16] = molecular target: T6, Runt-related transcription factor 1/Core-binding factor subunit beta (Homo sapiens, UniProt Q01196+Q13951); experiment: disruptors of Runt domain/CBFb-SMMHC interaction – biochemical, FRET, Cerulean-Runt, Venus-CBFb-SMMHC, uHTS, […] (AID 1434); assay type: protein assay
[17] = molecular target: T6, Runt-related transcription factor 1/Core-binding factor subunit beta; experiment: Runt domain/CBFb-SMMHC interaction disruptors – biochemical, TR-FRET (AID 1438); assay type: protein assay
T-cell = experiment: loss of vesicle association with mouse CD8+ T cells – mouse 2C CD8+ T cells, flow cytometry, dose response (AID 485284); assay type: functional
Troponin, cardiac muscle = Troponin, cardiac muscle (Homo sapiens, UniProt P19429+P45379+P63316); experiment: Fluorescence-based biochemical high throughput dose response assay for activators of the calcium sensitivity of cardiac Regulated Thin Filaments (RTF). [Related pubchem assays (depositor defined):AID493008, AID493018, AID504382, AID504383]; assay type: protein-complex assay
Cannabinoid receptor 2 [18] = molecular target: T7, Cannabinoid receptor 2 (Homo sapiens, UniProt P34972); experiment: SAR analysis of antagonists of the Cannabinoid Receptor 2 using an Image-Based Assay - Set 2. [Related pubchem assays (depositor defined):AID1961, AID1965]; assay type: functional
[19] = molecular target: G-protein coupled receptor 55 (Homo sapiens, UniProt Q9Y2T6); experiment: SAR analysis of selective Agonists of GPR55 using an Image-Based Assay - Set 2. [Related pubchem assays (depositor defined):AID1961, AID1965]; assay type: functional
Cannabinoid receptor 2 [20] = molecular target: T7, Cannabinoid receptor 2; experiment: SAR analysis of agonists of the Cannabinoid Receptor 2 using an Image-Based Assay - Set 2. [Related pubchem assays (depositor defined):AID1961, AID1965]; assay type: functional
[21] = molecular target: T8, G-protein coupled receptor 35 (Homo sapiens, UniProt Q9HC97); experiment: SAR analysis of Agonists of the GPR35 Receptor using an Image-Based Assay - Set 3. [Related pubchem assays (depositor defined):AID1961, AID1965]; assay type: functional
Cannabinoid receptor 1 [22] = molecular target: T9, Cannabinoid receptor 1 (Homo sapiens, UniProt P21554); experiment: SAR analysis of antagonists of the Cannabinoid Receptor 1 using an Image-Based Assay - Set 3. [Related pubchem assays (depositor defined):AID1961, AID1965]; assay type: functional
Cannabinoid receptor 1 [23] = molecular target: T9, Cannabinoid receptor 1; experiment: SAR analysis of agonists of the Cannabinoid Receptor 1 using an Image-Based Assay - Set 3. [Related pubchem assays (depositor defined):AID1961, AID1965]; assay type: functional
[24] = molecular target: T8, G-protein coupled receptor 35; experiment: SAR analysis of Antagonists of the GPR35 Receptor using an Image-Based Assay - Set 4. [Related pubchem assays (depositor defined):[…]]; assay type: functional
[25] = molecular target: Luciferin 4-monooxygenase (Photinus pyralis, UniProt P08659); experiment: inhibition of purified Photinus pyralis luciferase – biochemical, luminescence, dose response (AID 1891)
[26] = Luminescence Cell-Based Dose Confirmation HTS to Identify Inhibitors of Platelet Dense Granule Release. [Related pubchem assays: 1663 (Primary HTS), 1678 (Summary of Project)]; assay type: functional
Hexokinase HKDC1 = Hexokinase HKDC1 (Homo sapiens, UniProt Q2TB90); experiment: activation of HKDC1 glucose phosphorylation – biochemical, W721R variant, dose response (AID 504730); assay type: functional
Nonstructural protein 1 = Nonstructural protein 1 (Influenza A virus, UniProt Q194T2); assay type: functional, Influenza A virus (A/California/07/2009(H1N1))
Hexokinase-1 = Hexokinase-1 (Homo sapiens, UniProt P19367); experiment: HK1 enzyme activation by HKDC1 hits – biochemical, selectivity assay for HKDC1 activator project, dose response (AID 504762); assay type: functional
[27] = viability loss in HeLa cells – cytotoxicity control for MgcRacGAP inhibitor project, dose response (AID 624300); assay type: functional
[28] = molecular target: T10, Rac GTPase-activating protein 1 (Homo sapiens, UniProt Q9H0H5); experiment: blockers of MgcRacGAP-driven Rac1 GTP hydrolysis – biochemical, ADP Hunter fluorescence, primary and confirmatory, confirmation (AID 624330); assay type: functional
T10 sequence (Q9H0H5 whole entry): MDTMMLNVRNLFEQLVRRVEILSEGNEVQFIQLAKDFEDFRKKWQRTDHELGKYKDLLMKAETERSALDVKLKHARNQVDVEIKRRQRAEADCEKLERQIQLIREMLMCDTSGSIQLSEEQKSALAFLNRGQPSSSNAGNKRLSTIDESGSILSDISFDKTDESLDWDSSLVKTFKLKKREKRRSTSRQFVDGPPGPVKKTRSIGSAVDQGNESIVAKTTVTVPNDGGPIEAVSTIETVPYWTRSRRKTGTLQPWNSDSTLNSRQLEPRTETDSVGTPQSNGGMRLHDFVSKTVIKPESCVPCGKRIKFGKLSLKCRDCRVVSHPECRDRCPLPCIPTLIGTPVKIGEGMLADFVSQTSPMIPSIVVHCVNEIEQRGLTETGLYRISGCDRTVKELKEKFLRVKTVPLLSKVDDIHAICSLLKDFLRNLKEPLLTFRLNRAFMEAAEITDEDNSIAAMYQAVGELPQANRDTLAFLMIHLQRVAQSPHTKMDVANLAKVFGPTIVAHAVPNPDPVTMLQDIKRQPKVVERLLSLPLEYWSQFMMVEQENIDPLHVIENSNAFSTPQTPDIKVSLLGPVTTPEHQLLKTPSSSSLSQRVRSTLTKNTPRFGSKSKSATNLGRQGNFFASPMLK

In the case of `C[N+]1(CC2COC(c3ccco3)O2)CCCCC1` (centres undefined), the EC50 [1] is reported as > 195 µM (not active), the IC50 [2] is reported as 3.15 µM (active) and the IC50 [3] is reported as 3.34 µM (active). For the same compound, the IC50 [4] was 3.23 µM (active).

With `Cc1nn(Cc2ccccc2)c(Cl)c1C(=O)OC(C)C#N` (centres undefined) the EC50 [5] was > 50 µM (inactive).

For `CCc1cc2c3c(c1)C(C)CC(C)(C)N3C(=O)/C2=C1\SC(=O)NC1=O` (centres undefined), the EC50 (HEK293 [6]) was 7.46 µM (active), the IC50 (HEK293 [7]) was > 20 µM (inactive) and the IC50 (HEK293 [8]) was 16.4 µM (active). The EC50 [9] was 10.4 µM (active), the IC50 (HEK293 [10]) was 10.8 µM (inactive) and the IC50 (HEK293 [11]) was > 20 µM (inactive). The IC50 [12] was 14.3 µM (not active), the IC50 (Tumor necrosis factor) was 8.16 µM (active) and the IC50 [13] was 5.04 µM (active). The IC50 [14] was 5.9 µM (active) and the IC50 (HEK293 [15]) was > 20 µM (inactive).

In the case of `Cc1ccc(S(=O)(=O)c2c(N)n(Cc3ccco3)c3nc4ccccc4nc23)cc1`, the IC50 [16] is reported as > 100 µM (inactive) and the IC50 [17] is reported as > 100 µM (inactive).

In the case of `Cc1ccc(C(=O)NCCCN2CCOCC2)c(C)c1`, the EC50 (T-cell) is reported as 22.5 µM (inactive).

In the case of `O=C(NC1CCCCC1)c1cccc2c1C(=O)c1ccc(N3CCCC3)cc1S2(=O)=O`, the EC50 (Troponin, cardiac muscle) is reported as 6.65 µM (active).

For `Cc1ccc(Cl)cc1N1CCN(C(=O)c2cc(S(=O)(=O)N(C)C)ccc2N2CCCC2)CC1`, the IC50 (Cannabinoid receptor 2 [18]) was > 32 µM (inactive), the EC50 [19] was 8.84 µM (active) and the EC50 (Cannabinoid receptor 2 [20]) was > 32 µM (inactive). The EC50 [21] was > 32 µM (inactive), the IC50 (Cannabinoid receptor 1 [22]) was > 32 µM (inactive) and the EC50 (Cannabinoid receptor 1 [23]) was > 32 µM (inactive). The IC50 [24] was > 32 µM (inactive).

In the case of `Cc1nonc1C(=O)N/N=C/c1ccc(O)cc1O`, the EC50 [25] is reported as 0.667 µM (active), the EC50 [26] is reported as 0.136 µM (active) and the EC50 (Hexokinase HKDC1) is reported as > 80 µM (inactive). For the same compound, the IC50 (Nonstructural protein 1) was 4.75 µM (active), the EC50 (Hexokinase-1) was > 80 µM (inactive) and the CC50 [27] was 100 µM (active). The IC50 [28] was 69.4 µM (active).
